Experimental data published in US20080261895A1 (Wyeth, priority 2006, published 2008).
Several values for one entry are separate records, joined by “and”; a condition that tells them apart may be missing. Equal entries are not always repeated.

Experiments:
[1] = Whole blood and plasma radioactivity and partitioning after single oral [14C]DVS, rats; assay type: in vivo, Sprague Dawley rats; settings: single oral 20 mg/kg; for Radioactivity in Plasma, Individual Rats / Radioactivity in Plasma, Mean ± S.D. / Radioactivity in Whole Blood, Individual Rats: listed as [^14C]DVS, 20 mg/kg
Source text: Sprague Dawley rats (12 male and 6 female), weighing between 0.311 and 0.345 kg for males and between 0.263 and 0.311 kg for females at the time of dosing, were used. Animals were given food and water ad libitum. For ease of reporting, the animals were designated numbers 001M through 012M for the male rats and 001F through 006F for the female rats. Three animals from the last time point, for each sex, were housed individually in metabolism cages for the collection of urine and feces. The other animals were housed individually in standard cages.
The oral dosing solution was prepared by combining 86.4 mL of 3.0 mg/mL (2.0 mg/mL, free base) unlabeled DVS solution with 3.6 mL of 4.3 mg/mL (3.0 mg/mL free base) [^14C]DVS solution. Solutions were prepared in 0.25% polysorbate 80, 0.5% methylcellulose in water. The radiochemical purity, specific activity and concentration of [^14C]DVS (bulk drug and dosing solution) were determined using HPLC with radiometric detection. Aliquots of the dosing solution were taken pre-, mid-, and post-dose for the determination of specific activity and radioactivity concentrations of dosing solution.
Whole blood (approximately 5 mL) was collected by cardiac puncture into heparinized tubes at the appropriate time points (1, 4, 8, and 24 hours for male rats, and 1 and 8 hours for female rats, N=3 for each sex at each time point). Triplicate aliquots (200 μL) of whole blood were placed into combusto-cones, weighed and allowed to air dry. These samples were oxidized. The remaining blood was centrifuged at 5000×g and 4° C. for 10 minutes (Model Legend RT centrifuge, Sorvall). The resulting plasma was transferred to fresh tubes and triplicate aliquots (100 μL) were analyzed for radioactivity content. The remaining plasma was stored at −70° C. until metabolite analysis.
Blood samples and fecal homogenates were oxidized in a Model 307 Tri-Carb sample oxidizer, using Carbosorb® E (6 mL) as trapping agent and PermaFluor® E^+ (10 mL) as scintillant. Oxidation efficiency was determined by oxidation of C-Spec-Chec (Perkin Elmer), a standard of known radioactivity, and determined to be 98.7%. The background reading (average of control blood or fecal samples) was subtracted from each sample reading. Aliquots of urine and plasma were analyzed directly following the addition of 10 mL of Ultima Gold™ scintillation fluid.
(§1) All radioactivity determinations were made using a Tri-Carb Model 3100TR liquid scintillation counter (Perkin Elmer) with an Ultima Gold™ or toluene standard curve. Counts per minute (CPM) were converted to disintegrations per minute (DPM) by use of external standards of known radioactivity. The quench of each standard was determined by the transformed spectral index of an external radioactive standard (tSIE). The lower limits of detection were defined as twice background.

[2] = Whole blood and plasma radioactivity and partitioning after single oral [14C]DVS, dogs; assay type: in vivo, beagle dogs; settings: single oral 30 mg/kg; for Radioactivity in Plasma, Individual Dogs / Radioactivity in Plasma, Mean ± S.D. / Radioactivity in Whole Blood, Individual Dogs: listed as [^14C]DVS, 30 mg/kg
Method: Male beagle dogs (n=4), weighing between 14.4 and 16.2 kg at the time of dosing (from an in-house colony), were used. For ease of reporting, the animals were designated numbers 5 through 8. Dose preparation, animal dosing and sample collection were performed at Wyeth Research, Pearl River, N.Y.
The oral dosing solution was prepared by suspending 19.0 mg of [^14C]DVS and 4168.3 mg of unlabeled DVS in 270 mL of vehicle (0.25% polysorbate 80, 0.5% methylcellulose in water). The radiochemical purity, specific activity and concentration of [^14C]DVS (bulk drug and dosing solution) were determined using HPLC with radiometric detection. Duplicate aliquots of the dosing solution were taken pre-, mid- and post-dose for the determination of specific activity and radioactivity concentrations of the dosing solution.
The target dose for each animal was 30 mg/kg (free base; 10 mg/mL, 3 mL/kg, 30 μCi/kg) [^14C]DVS via oral gavage. The target dose was selected because it has been used in previous pharmacokinetic studies.
Whole blood (approximately 10 mL), collected into heparinized tubes at 1, 4, 8, and 24 hours post-dose (N=4 for each time point), was analyzed. One mL of blood was transferred to a fresh tube to be used for determination of radioactivity concentrations. Plasma was obtained by centrifugation at 4° C. within two hours of blood collection. Plasma and whole blood samples were shipped on dry ice to Wyeth Research, Biotransformation Division (Collegeville, Pa.) for analysis. Triplicate aliquots of whole blood (200 μL) were placed into combusto-cones and allowed to air dry. These samples were then oxidized and radioactivity content determined. Triplicate aliquots (100 μL) of the plasma samples were analyzed for radioactivity content. The remaining plasma was stored at −70° C. until metabolite analysis.
For each dog, urine and feces were collected separately, with urine collected on dry ice and feces collected at room temperature. Collections were from 0-8 and 8-24 hours for urine and 0-24 hours for feces. Urine and fecal samples were shipped on dry ice to Wyeth Research, Biotransformation Division (Collegeville, Pa.) for analysis. Fecal samples were homogenized in approximately five volumes (v/w) of water. Aliquots of approximately 0.2 grams of the homogenate were placed into combusto-cones, weighed and allowed to air dry. These samples were then oxidized and radioactivity content determined. The remaining urine samples and fecal homogenates were stored at −70° C. until metabolite analysis. Blood samples and fecal homogenates were oxidized in a Model 307 Tri-Carb sample oxidizer, using Carbosorb® E (6 mL) as trapping agent and PermaFluor® E^+ (10 mL) as scintillant. The background reading (average of control blood or fecal samples) was subtracted from each sample reading. Aliquots of urine and plasma were analyzed directly following the addition of 10 mL of Ultima Gold™ scintillation fluid.
as §1, with “(Packard BioScience, Boston, Mass.)” for “(Perkin Elmer)”, “GOl™” for “Gold™”

**Q.** What does the source list for `CN(C)CC(c1ccc(O)cc1)C1(O)CCCCC1.O=C(O)CCC(=O)O` (stereo not shown) [DVS, O-desmethylvenlafaxine succinate]?
**A.** Radioactivity in Whole Blood, Mean ± S.D. ([1]; 1 hr, female): 6.18 ± 0.74 μg equivalents/mL; Radioactivity in Plasma, Individual Rats ([1]; 1 hr, female): 9.61 μg equivalents/mL and 8.74 μg equivalents/mL and 11.3 μg equivalents/mL; Radioactivity in Plasma, Mean ± S.D. ([1]; 1 hr, female): 9.90 μg equivalents/mL and 9.90 ± 1.2 μg equivalents/mL; Radioactivity in Whole Blood, Individual Rats ([1]; 1 hr, female): 5.63 μg equivalents/mL and 5.76 μg equivalents/mL and 7.15 μg equivalents/mL; Radioactivity in Whole Blood, Mean ± S.D. ([1]; 1 hr, male): 6.87 ± 1.50 μg equivalents/mL; Radioactivity in Plasma, Individual Rats ([1]; 1 hr, male): 10.4 μg equivalents/mL and 8.90 μg equivalents/mL and 13.7 μg equivalents/mL; Radioactivity in Plasma, Mean ± S.D. ([1]; 1 hr, male): 11.0 μg equivalents/mL and 11.0 ± 2.2 μg equivalents/mL; Radioactivity in Whole Blood, Individual Rats ([1]; 1 hr, male): 6.11 μg equivalents/mL and 5.66 μg equivalents/mL and 8.85 μg equivalents/mL; Radioactivity in Whole Blood, Mean ± S.D. ([1]; 4 hr, male): 0.88 ± 0.12 μg equivalents/mL; Radioactivity in Plasma, Individual Rats ([1]; 4 hr, male): 1.59 μg equivalents/mL and 1.62 μg equivalents/mL and 1.22 μg equivalents/mL; Radioactivity in Plasma, Mean ± S.D. ([1]; 4 hr, male): 1.48 μg equivalents/mL and 1.48 ± 0.20 μg equivalents/mL; Radioactivity in Whole Blood, Individual Rats ([1]; 4 hr, male): 0.95 μg equivalents/mL and 0.96 μg equivalents/mL and 0.72 μg equivalents/mL; Radioactivity in Whole Blood, Mean ± S.D. ([1]; 8 hr, female): 0.58 ± 0.07 μg equivalents/mL; Radioactivity in Plasma, Individual Rats ([1]; 8 hr, female): 0.86 μg equivalents/mL and 0.82 μg equivalents/mL and 1.08 μg equivalents/mL; Radioactivity in Plasma, Mean ± S.D. ([1]; 8 hr, female): 0.92 μg equivalents/mL and 0.92 ± 0.12 μg equivalents/mL; Radioactivity in Whole Blood, Individual Rats ([1]; 8 hr, female): 0.59 μg equivalents/mL and 0.50 μg equivalents/mL and 0.66 μg equivalents/mL; Radioactivity in Whole Blood, Mean ± S.D. ([1]; 8 hr, male): 0.59 ± 0.18 μg equivalents/mL; Radioactivity in Plasma, Individual Rats ([1]; 8 hr, male): 0.53 μg equivalents/mL and 1.10 μg equivalents/mL and 1.05 μg equivalents/mL; Radioactivity in Plasma, Mean ± S.D. ([1]; 8 hr, male): 0.89 μg equivalents/mL and 0.89 ± 0.27 μg equivalents/mL; Radioactivity in Whole Blood, Individual Rats ([1]; 8 hr, male): 0.35 μg equivalents/mL and 0.71 μg equivalents/mL (2×); Radioactivity in Whole Blood, Mean ± S.D. ([1]; 24 hr, male): 0.07 ± 0.01 μg equivalents/mL; Radioactivity in Plasma, Individual Rats ([1]; 24 hr, male): 0.07 μg equivalents/mL and 0.08 μg equivalents/mL and 0.05 μg equivalents/mL; Radioactivity in Plasma, Mean ± S.D. ([1]; 24 hr, male): 0.07 μg equivalents/mL and 0.07 ± 0.01 μg equivalents/mL; Radioactivity in Whole Blood, Individual Rats ([1]; 24 hr, male): 0.06 μg equivalents/mL and 0.08 μg equivalents/mL and 0.05 μg equivalents/mL; Radioactivity in Whole Blood, Mean ± S.D. ([2]; 1 hr): 8.37 ± 1.45 μg equivalents/mL; Radioactivity in Plasma, Individual Dogs ([2]; 1 hr): 14.6 μg equivalents/mL and 11.5 μg equivalents/mL and 9.56 μg equivalents/mL and 17.5 μg equivalents/mL; Radioactivity in Plasma, Mean ± S.D. ([2]; 1 hr): 13.3 μg equivalents/mL and 13.3 ± 3.5 μg equivalents/mL; Radioactivity in Whole Blood, Individual Dogs ([2]; 1 hr): 8.56 μg equivalents/mL and 8.61 μg equivalents/mL and 6.40 μg equivalents/mL and 9.91 μg equivalents/mL; Radioactivity in Whole Blood, Mean ± S.D. ([2]; 4 hr): 8.58 ± 0.59 μg equivalents/mL; Radioactivity in Plasma, Individual Dogs ([2]; 4 hr): 17.0 μg equivalents/mL and 16.8 μg equivalents/mL and 16.5 μg equivalents/mL and 17.1 μg equivalents/mL; Radioactivity in Plasma, Mean ± S.D. ([2]; 4 hr): 16.9 μg equivalents/mL and 16.9 ± 0.3 μg equivalents/mL; Radioactivity in Whole Blood, Individual Dogs ([2]; 4 hr): 8.16 μg equivalents/mL and 8.03 μg equivalents/mL and 8.82 μg equivalents/mL and 9.30 μg equivalents/mL; Radioactivity in Whole Blood, Mean ± S.D. ([2]; 8 hr): 3.84 ± 1.01 μg equivalents/mL; Radioactivity in Plasma, Individual Dogs ([2]; 8 hr): 4.51 μg equivalents/mL and 9.12 μg equivalents/mL and 10.2 μg equivalents/mL and 5.87 μg equivalents/mL; Radioactivity in Plasma, Mean ± S.D. ([2]; 8 hr): 7.43 μg equivalents/mL and 7.43 ± 2.68 μg equivalents/mL; Radioactivity in Whole Blood, Individual Dogs ([2]; 8 hr): 3.30 μg equivalents/mL and 3.79 μg equivalents/mL and 5.27 μg equivalents/mL and 2.98 μg equivalents/mL; Radioactivity in Whole Blood, Mean ± S.D. ([2]; 24 hr): 0.48 ± 0.20 μg equivalents/mL; Radioactivity in Plasma, Individual Dogs ([2]; 24 hr): 0.66 μg equivalents/mL and 0.86 μg equivalents/mL and 1.14 μg equivalents/mL and 0.56 μg equivalents/mL; Radioactivity in Plasma, Mean ± S.D. ([2]; 24 hr): 0.81 μg equivalents/mL and 0.81 ± 0.25 μg equivalents/mL; Radioactivity in Whole Blood, Individual Dogs ([2]; 24 hr): 0.38 μg equivalents/mL and 0.47 μg equivalents/mL and 0.75 μg equivalents/mL and 0.31 μg equivalents/mL
